Assay: mn = molality of the nth substance listed, in mol/kg
Conditions: 101 kPa, Liquid

O=C[C@@H](O)[C@@H](O)[C@H](O)[C@H](O)CO [D-mannose] + O
Conditions | mass density, 288.15 K [kg/m3] | mass density, 298.15 K [kg/m3] | mass density, 308.15 K [kg/m3] | mass density, 318.15 K [kg/m3] | viscosity, 288.15 K [mPa·s] | viscosity, 298.15 K [mPa·s] | viscosity, 308.15 K [mPa·s] | viscosity, 318.15 K [mPa·s]
m1 = 0.0501 | – | – | – | – | 1.168 | 0.912 | 0.735 | 0.608
m1 = 0.05278 | 1002.76 | 1000.64 | 997.63 | 993.78 | – | – | – | –
m1 = 0.07151 | 1004.03 | 1001.9 | 998.87 | 995.02 | 1.181 | 0.92 | 0.742 | 0.613
m1 = 0.09003 | 1005.28 | 1003.14 | 1000.09 | 996.23 | – | – | – | –
m1 = 0.09353 | – | – | – | – | 1.191 | 0.929 | 0.749 | –
m1 = 0.1065 | 1006.39 | 1004.23 | 1001.17 | 997.3 | – | – | – | –
m1 = 0.1123 | – | – | – | – | 1.201 | 0.936 | 0.756 | 0.624
m1 = 0.1277 | – | 1005.63 | 1002.56 | 998.67 | – | – | – | –
m1 = 0.1318 | – | – | – | – | 1.214 | 0.945 | 0.761 | 0.628
m1 = 0.1488 | – | – | 1003.92 | 1000.02 | – | – | – | –
m1 = 0.1515 | – | – | – | – | 1.225 | 0.952 | 0.766 | 0.634

O=C[C@H](O)[C@@H](O)[C@H](O)CO [D-xylose] + O
Conditions | mass density, 288.15 K [kg/m3] | mass density, 298.15 K [kg/m3] | mass density, 308.15 K [kg/m3] | mass density, 318.15 K [kg/m3] | viscosity, 288.15 K [mPa·s] | viscosity, 298.15 K [mPa·s] | viscosity, 308.15 K [mPa·s] | viscosity, 318.15 K [mPa·s]
m1 = 0.0491 | 1001.82 | 999.72 | 996.71 | 992.87 | – | – | – | –
m1 = 0.04924 | – | – | – | – | 1.161 | 0.904 | 0.73 | 0.605
m1 = 0.06784 | – | – | – | – | 1.167 | 0.911 | 0.735 | 0.609
m1 = 0.07084 | 1002.99 | 1000.89 | 997.87 | 994.02 | – | – | – | –
m1 = 0.08985 | 1004.02 | 1001.9 | 998.88 | 995.03 | – | – | – | –
m1 = 0.09005 | – | – | – | – | 1.176 | 0.917 | 0.74 | 0.612
m1 = 0.1038 | – | – | – | – | 1.183 | 0.921 | 0.743 | 0.615
m1 = 0.1144 | 1005.32 | 1003.21 | 1000.16 | 996.31 | – | – | – | –
m1 = 0.1285 | – | – | – | – | 1.19 | 0.929 | 0.749 | 0.62
m1 = 0.1303 | 1006.16 | 1004.04 | 1000.99 | 997.13 | – | – | – | –
m1 = 0.1485 | 1007.12 | 1005 | 1001.94 | 998.07 | – | – | – | –
m1 = 0.151 | – | – | – | – | 1.201 | 0.936 | 0.754 | 0.624

O=C[C@H](O)[C@@H](O)[C@H](O)[C@H](O)CO [D-glucose] + O
Conditions | mass density [kg/m3] | viscosity [mPa·s]
288.15 K, m1 = 0.0513 | – | 1.167
288.15 K, m1 = 0.05146 | 1002.66 | –
288.15 K, m1 = 0.06904 | – | 1.176
288.15 K, m1 = 0.07233 | 1004.08 | –
288.15 K, m1 = 0.09026 | – | 1.188
288.15 K, m1 = 0.09244 | 1005.44 | –
288.15 K, m1 = 0.1114 | – | 1.2
288.15 K, m1 = 0.1294 | – | 1.212
288.15 K, m1 = 0.149 | – | 1.219
298.15 K, m1 = 0.0513 | – | 0.911
298.15 K, m1 = 0.05146 | 1000.54 | –
298.15 K, m1 = 0.06904 | – | 0.918
298.15 K, m1 = 0.07233 | 1001.94 | –
298.15 K, m1 = 0.09026 | – | 0.926
298.15 K, m1 = 0.09244 | 1003.27 | –
298.15 K, m1 = 0.1096 | 1004.41 | –
298.15 K, m1 = 0.1114 | – | 0.935
298.15 K, m1 = 0.1241 | 1005.36 | –
298.15 K, m1 = 0.1294 | – | 0.942
298.15 K, m1 = 0.149 | – | 0.951
308.15 K, m1 = 0.0513 | – | 0.735
308.15 K, m1 = 0.06904 | – | 0.741
308.15 K, m1 = 0.07233 | 998.9 | –
308.15 K, m1 = 0.09026 | – | 0.747
308.15 K, m1 = 0.09244 | 1000.22 | –
308.15 K, m1 = 0.1096 | 1001.34 | –
308.15 K, m1 = 0.1114 | – | 0.755
308.15 K, m1 = 0.1241 | 1002.28 | –
308.15 K, m1 = 0.1294 | – | 0.759
308.15 K, m1 = 0.1456 | 1003.66 | –
308.15 K, m1 = 0.149 | – | 0.764
318.15 K, m1 = 0.0513 | – | 0.609
318.15 K, m1 = 0.05146 | 993.66 | –
318.15 K, m1 = 0.06904 | – | 0.613
318.15 K, m1 = 0.07233 | 995.03 | –
318.15 K, m1 = 0.09026 | – | 0.618
318.15 K, m1 = 0.09244 | 996.33 | –
318.15 K, m1 = 0.1096 | 997.44 | –
318.15 K, m1 = 0.1114 | – | 0.623
318.15 K, m1 = 0.1241 | 998.37 | –
318.15 K, m1 = 0.1294 | – | 0.627
318.15 K, m1 = 0.1456 | 999.74 | –
318.15 K, m1 = 0.149 | – | 0.632

From the NIST ThermoML archive (doi:10.1021/je500886a)
